These results are taken from US9801404B2, “IGF-1 production-promoting agent” (MORINAGA MILK INDUSTRY CO., LTD., priority 2012, dated 2017).

The test system of assay [1] is IGF-1 mRNA in gastrocnemius. Kind of assay: Expression of IGF-1 mRNA in gastrocnemius at recovery from tail-suspension muscular atrophy. The following applies: mice after tail suspension; feed with 0.07 mass % nobiletin for 3 days. It counts as in vivo, C57BL/6J mice. An excerpt: (§1) Male C57BL/6J mice (10-week old) were preliminarily bred for one week, and divided into six groups (control group (Cont), standard feed administration after tail suspension group (Fix), Citrus depressa extract administration after tail suspension group (Fix+SE), polymethoxyflavonoid administration after tail suspension group (Fix+PMF), nobiletin administration after tail suspension group (Fix+NOB), and tangeretin administration after tail suspension group (Fix+TAN), n=8 for the Cont, Fix, Fix+SE, Fix+PMF, Fix+NOB, and Fix+TAN groups).
(§2) After the preliminary breeding, muscular atrophy was induced in the mice of the Fix and Fix+SE groups by tail suspension for two weeks. […]
On day 4 after the change of the feed, the mice were dissected, and the serum IGF-1 concentration, expression of follistatin mRNA in the gastrocnemius, expression of IGF-1 mRNA in the gastrocnemius, and phosphorylation ratio (β+γ) of p70S6K1 in the gastrocnemius were evaluated.
(§3) The serum IGF-1 concentration was measured in the same manner as that used in Example 1. The expression of follistatin mRNA in the gastrocnemius was measured in the same manner as that used in Example 1, except that the hind leg gastrocnemius was extracted from each […], and Assay ID Mm00514982_ml (Applied Biosystems) was used as the primer. […]

Another assay concerns p70S6K1. Kind of assay: Phosphorylation ratio of p70S6K1 in gastrocnemius at recovery from tail-suspension muscular atrophy. The assay is classed as in vivo, C57BL/6J mice. The following applies: mice after tail suspension; feed with 0.04 mass % tangeretin for 3 days.
Description: as §1, §2
On day 4 after the change of the feed, the mice were dissected, and the serum IGF-1 concentration, expression of follistatin mRNA in the gastrocnemius, expression of IGF-1 mRNA in the gastrocnemius, and phosphorylation ratio (β+γ) of p70S6K1 in the gastrocnemius were evaluated. […]
as §3

Where “and” joins values, the source holds several entries; their conditions need not be identical. Identical values can stand only once.

As for `COc1ccc(-c2cc(=O)c3c(OC)c(OC)c(OC)c(OC)c3o2)cc1OC` [NOB, nobiletin], in assay [1], the “Expression of IGF-1 mRNA in gastrocnemius (AU)” value was 1.75±0.40 AU and 1.75 AU; the “Expression of IGF-1 mRNA in gastrocnemius, Fix+NOB group compared with the Fix group” value came out at 107%.

For the compound `COc1ccc(-c2cc(=O)c3c(OC)c(OC)c(OC)c(OC)c3o2)cc1` [TAN, tangeretin], in the assay with p70S6K1, the “Phosphorylation ratio of p70S6K1, Fix+TAN group compared with the Fix group” value was determined as 112%; the “Phosphorylation ratio of p70S6K1 in gastrocnemius (β + γ) (%)” value is 47.8±11.8% and 47.8%.
